Legend:
NOX [1] = target: T1, NOX (Homo sapiens, UniProt P04839); experiment: Amplex Red measurement of extracellular hydrogen peroxide (NOX activity) in DMSO-differentiated HL60 cells; assay type: cell-based
T1 construct: NOX activity as measured by Amplex Red using DMSO-differentiated HL60 cells; endogenous in cells; host or cells: HL-60 cells differentiated to the neutrophil phenotype with Me2SO
T1 sequence (P04839 2-570 limits assumed): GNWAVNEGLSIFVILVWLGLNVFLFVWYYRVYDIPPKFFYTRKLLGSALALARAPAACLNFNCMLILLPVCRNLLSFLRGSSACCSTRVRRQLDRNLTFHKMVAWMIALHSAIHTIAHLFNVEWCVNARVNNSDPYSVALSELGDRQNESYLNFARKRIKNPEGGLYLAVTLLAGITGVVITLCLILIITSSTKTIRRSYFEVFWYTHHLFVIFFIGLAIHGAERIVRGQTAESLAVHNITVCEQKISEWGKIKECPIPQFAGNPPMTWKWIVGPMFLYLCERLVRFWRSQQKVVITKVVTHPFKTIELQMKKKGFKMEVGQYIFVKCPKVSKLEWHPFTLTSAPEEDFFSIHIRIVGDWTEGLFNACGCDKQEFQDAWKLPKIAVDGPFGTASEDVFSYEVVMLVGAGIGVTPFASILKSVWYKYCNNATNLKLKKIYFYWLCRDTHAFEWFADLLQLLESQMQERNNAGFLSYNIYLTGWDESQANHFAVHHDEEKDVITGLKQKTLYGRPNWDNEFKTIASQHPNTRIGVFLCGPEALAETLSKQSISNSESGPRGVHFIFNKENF
T1 sequence (P13498 1-195 partner): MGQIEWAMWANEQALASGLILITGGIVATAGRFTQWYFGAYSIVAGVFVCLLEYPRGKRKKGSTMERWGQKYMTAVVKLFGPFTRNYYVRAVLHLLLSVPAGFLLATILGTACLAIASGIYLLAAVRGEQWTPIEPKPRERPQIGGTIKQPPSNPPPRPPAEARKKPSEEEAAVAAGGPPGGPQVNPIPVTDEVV
Method: Human acute myeloid leukemia cell line HL-60 was cultured in RPMI 1640 (Invitrogen) supplemented with 10% heat-inactivated calf serum, 2 mM glutamine, 100 U/mL penicillin (Sigma), and 100 μg streptomycin (Sigma) at 37° C. under a humidified atmosphere of 5% CO2. HL60 differentiation to the neutrophil phenotype was triggered by adding Me2SO (final concentration 1.25% v/v for 6 days) to the culture medium.
Extracellular hydrogen peroxide was measured using Amplex UltraRed (Molecular Probes). Cells were trypsinized (1× Trypsin-EDTA), collected by centrifugation, and resuspended in HBSS supplemented with 1% glucose. Cells were seeded into black 96-well plates at a density of 50′000 cells in 200 μl testing buffer (HBSS 1% glucose containing 0.005 U/mL horseradish peroxidase (Roche) and 50 μM Amplex Red in the presence or absence of compounds according to the invention. As a control, DPI was included at a final concentration of 10 μM The plates were placed in the fluorescent Optima Fluorescent plate reader and kept at 37° C. during 20 min. Fluorescence was measured for 15 min with excitation and emission wavelengths of 544 nm and 590 nm respectively. NOX activities were expressed as % of the activity in control cells. Residual activity of DPI-treated cells was usually <10%. […]
The Table 2 below summarizes the IC50 of NOX activity as measured by Amplex Red using DMSO-differentiated HL60 cells as described above: […]

NOX [2] = experiment: Nitroblue tetrazolium (NBT) superoxide test in cells; assay type: cell-based, human; settings: DPI 10 μM, % of the activity in control cells, 'usually'
Method: Intracellular and extracellular superoxide was measured by a colorimetric technique using a quantitative nitroblue tetrazolium (NBT) test. SOD-inhibitable conversion of NBT to formazan, a fine blue precipitate, in the presence of superoxide anion was measured using Fluostar Optima spectrometer (BMG labtech). Following incubation with appropriate stimuli, cells were trypsinized (1× Trypsin-EDTA), collected by centrifugation, and washed with PBS to remove medium. 5×10^5 cells were plated on 48-well plates and incubated in Hank's balanced salt solution containing 0.5 mg/mL NBT with or without 800 U/mL SOD in the presence or absence of compounds according to the invention. As a control, DPI was included at a final concentration of 10 μM. After 2.5 h, cells were fixed and washed with methanol to remove non reduced NBT. The reduced formazan was then dissolved in 230 μl of 2M potassium hydroxide and in 280 μl of dimethylsulfoxide. The absorption was measured at 630 nm. For calculation, the absorbance at 630 nm was normalized for each individual well. The mean of the four blank values was subtracted from each corrected value for each time point. NOX activities were expressed as % of the activity in control cells. Residual activity of DPI-treated cells was usually <10%.

NOX [3] = experiment: Chemiluminescence (Luminol) ROS measurement in cells; assay type: cell-based, human; settings: % of the activity in control cells, 'usually'
Method: ROS was measured using the chemiluminescent probe luminol. Cells were cultured and plated as for Amplex Red except that the Amplex Red agent was replaced by 10 μg/mL luminol (Sigma 09235). Light emission was recorded continuously at 37° C. for 60 minutes using the luminescence function of the FluoStar Optima fluorescent plate reader. The mean of the four blank values was subtracted from each corrected value for each time point. NOX activities were expressed as % of the activity in control cells. Residual activity of DPI-treated cells was usually <10%.

NOX [4] = experiment: H2DCF-DA fluorescence in TGF-β stimulated HUVEC; assay type: cell-based, human; settings: % of the activity in control cells, 'usually'
Method: HUVEC are cultured in endothelial basal medium supplemented with hydrocortisone (1 μg/mL, CalBioChem), bovine brain extract (12 μg/mL), gentamicin (50 μg/mL, CalBioChem), amphotericin B (50 ng/mL, CalBioChem EGF (10 ng/mL, and 10% FCS until the fourth passage. When the fifth passage was started, cells were cultured with a lower concentration of FCS (2%) in the absence of EGF, if not indicated otherwise. All experiments were done with cells of the fifth passage. The cells were incubated with OxLDL (oxidized low-density lipoprotein) or its buffer as control for 24 h, before detection of 02 formation.
HUVEC were plated on coverslips and made quiescent overnight in 0.5% BSA before stimulation with TGF-β. Cells were loaded for 10 minutes with 5 μM CM-H2DCFDA in phenol-red-free medium in the dark and then treated with TGF-β (R&D Systems) in the presence or absence of compounds according to the invention. Cells were then visualized by immunofluorescence microscopy after fixation and staining of the nuclei with DAPI or examined live using confocal microscopy. DCF fluorescence was visualized at an excitation wavelength of 488 nm and emission at 515 to 540 nm. […] For calculation, the absorbance at […] was normalized to absorbance at […] for each individual well. […] NOX activities were expressed as % of the activity in control cells. […]

Compound	IC50 (NOX [1]) [µM]	also measured
Cc1c2c(=O)n(-c3ccccc3Cl)[nH]c2cc(=O)n1Cc1ccccc1N1CCOCC1 [Compound 1, 2-(2-chlorophenyl)-4-methyl-5-(2-morpholin-4-ylbenzyl)-1H-pyrazolo[4,3-c]pyridine-3,6(2H,5H)-dione]	< 5	
Cc1c2c(=O)n(-c3ccccc3Cl)[nH]c2cc(=O)n1CC(c1ccccc1)N1CCOCC1 (centres unmarked) [Compound 3, 2-(2-chlorophenyl)-4-methyl-5-(2-morpholin-4-yl-2-phenylethyl)-1H-pyrazolo[4,3-c]pyridine-3,6(2H,5H)-dione]	< 5	
COc1cccc(CCn2c(C)c3c(=O)n(-c4ccccc4Cl)[nH]c3cc2=O)c1 [Compound 4, 2-(2-chlorophenyl)-5-[2-(3-methoxyphenyl)ethyl]-4-methyl-1H-pyrazolo[4,3-c]pyridine-3,6(2H,5H)-dione]	< 5	
CCOCCCn1c(C)c2c(=O)n(-c3nc(-c4ccccc4)cs3)[nH]c2cc1=O [Compound 7, 5-(3-ethoxypropyl)-4-methyl-2-(4-phenyl-1,3-thiazol-2-yl)-1H-pyrazolo[4,3-c]pyridine-3,6(2H,5H)-dione]	< 5	
Cc1c2c(=O)n(-c3ccccc3Cl)[nH]c2cc(=O)n1C [Compound 8, 2-(2-chlorophenyl)-4,5-dimethyl-1H-pyrazolo[4,3-c]pyridine-3,6(2H,5H)-dione]	< 5	
Cc1c2c(=O)n(-c3ccccc3Cl)[nH]c2cc(=O)n1NC(=O)COc1ccc(F)cc1 [Compound 13, N-[2-(2-chlorophenyl)-4-methyl-3,6-dioxo-1,2,3,6-tetra hydro-5H-pyrazolo[4,3-c]pyridin-5-yl]-2-(4-fluorophenoxy)acetamide]	< 5	
Cc1c2c(=O)n(-c3ccccc3F)[nH]c2cc(=O)n1Cc1cccc(N2CCOCC2)n1 [Compound 20, 2-(2-fluorophenyl)-4-methyl-5-[(6-morpholin-4-ylpyridin-2-yl)methyl]-1H-pyrazolo[4,3-c]pyridine-3,6(2H,5H)-dione]	< 5	
c1ccc([I+]c2ccccc2)cc1 [DPI, Diphenyl-iodonium]		Residual activity of DPI-treated cells (NOX [2]): < 10%; Residual activity of DPI-treated cells (NOX [3]): < 10%; Residual activity of DPI-treated cells (NOX [4]): < 10%

Second part, led by results:

IC50 (NOX [1]) [µM]	Compound	also measured
< 5	Cc1c2c(=O)n(-c3ccccc3Cl)[nH]c2cc(=O)n1Cc1ccc(CN2CCN(C)CC2)cc1 [Compound 2, 2-(2-chlorophenyl)-4-methyl-5-{4-[(4-methylpiperazin-1-yl)methyl]benzyl}-1H-pyrazolo[4,3-c]pyridine-3,6(2H,5H)-dione]	
< 5	Cc1c2c(=O)n(-c3nc(-c4ccccc4)cs3)[nH]c2cc(=O)n1Cc1cccc(Oc2ccccc2)c1 [Compound 10, 4-methyl-5-(3-phenoxybenzyl)-2-(4-phenyl-1,3-thiazol-2-yl)-1H-pyrazolo[4,3-c]pyridine-3,6(2H,5H)-dione]	
< 5	Cc1c2c(=O)n(-c3cccc(Cl)c3)[nH]c2cc(=O)n1CCCC(=O)N1CCN(C)CC1 [Compound 28, 2-(3-chlorophenyl)-4-methyl-5-[4-(4-methylpiperazin-1-yl)-4-oxobutyl]-1H-pyrazolo[4,3-c]pyridine-3,6(2H,5H)-dione]	
< 5	Cc1c2c(=O)n(-c3ccccc3F)[nH]c2cc(=O)n1CC(=O)NCc1ccccn1 [Compound 30, 2-[2-(2-fluorophenyl)-4-methyl-3,6-dioxo-1,2,3,6-tetra hydro-5H-pyrazolo[4,3-c]pyridin-5-yl]-N-(pyridin-2-ylmethyl)acetamide]	
